Data on one compound can be found in patent US7727993B2, “Administering adenosine A2A receptor antagonist to reduce or suppress side effects of parkinson's disease therapy” (Kyowa Hakko Kirin Co., Ltd., priority 2002, dated 2010).

Entries after “also recorded” stand apart in the source; their conditions may differ.

Data set [1] deals with 6-hydroxydopamine lesion rats. As to the kind of experiment: In vivo microdialysis of GABA and glutamate in substantia nigra pars reticulata (Example 3). Set-up: species or system rat. The protocol: GABA and glutamate concentrations in an output nucleus of basal ganglia, substantia nigra pars reticulata (SNr), are measured in the 6-hydroxydopamine lesion rats and the chronically L-DOPA-treated rats after 6-hydroxydopamine lesion. Effect of adenosine A2A receptor selective antagonists on GABA and glutamate levels in SNr and dyskinesias was examined. 6-hydroxydopamine (8 μg) was injected into the left medial forebrain bundle in a rat. One week after the lesion, the rats were then tested for contralateral turning by injecting apomorphine (0.1 mg/kg s.c.). Only those animals showing robust contralateral turning were used in subsequent experiments. […] Rats were placed in each test chamber and the microdialysis probe inserted into SNr was attached to a fluid swivel (TCS2-23, Eicom) that allowed free movement (also sustained rotational behavior). Probes were continuously perfused with a modified Ringer's solution (1.2 mmol/L CaCl2, 2.7 mmol/L KCl, 148 mmol/L NaCl, and 0.85 mmol/L MgCl2; pH 7, artificial cerebrospinal fluid solution) at a rate of 2 μL/min via a microinjection pump (CMA/100, Carnegie […] AB). After stabilization of basal level of release for 3-4 h, 4 samples (60 μL each) during 2 h of perfusion were collected using a fraction collector (CMA/140, Carnegie […]). […] The samples were immediately assayed or frozen and stored in a deep freeze (-80° C.) before assays. GABA and glutamate were analyzed using reverse phase high-performance liquid chromatograph with fluorescence detection after pre-column derivatization of the amino acids with orthophthaldialdehyde reagent. Lindroth and Mopper (1979).

Data set [2] has as its system chronically L-DOPA-treated 6-hydroxydopamine lesion rats. Briefly: Abnormal involuntary movements (AIMs) scoring, L-DOPA induced dyskinesia (Example 3). The data set is classed as in vivo, rat. The protocol: 6-hydroxydopamine (8 μg) was injected into the left medial forebrain bundle in a rat. One week after the lesion, the rats were then tested for contralateral turning by injecting apomorphine (0.1 mg/kg s.c.). Only those animals showing robust contralateral turning were used in subsequent experiments.
During the chronic treatment of L-DOPA, recording of severity scale of AIMs were carried out. In addition, an amplitude-based scale for each limb and axial AIMs was scored during a microdialysis study. Amplitude scores of limb or axial AIMs (each ranging from 0 to 4) was rated based on both the magnitude of paw/limb translocation and of the visible involvement of distal versus proximal muscle groups or on the lateral deviation (or torsion) of an animal's neck and trunk from the longitudinal axis of its body, respectively.

In data set [3] the test system is MPTP cynomologus monkeys. As to the kind of experiment: Chronic L-DOPA alone or with KW-6002 in drug-naive MPTP parkinsonian monkeys (Example 4). Type of data set: in vivo. The note with it: L-DOPA alone group versus L-DOPA plus KW-6002 group; week 3 and 4; FIG. 8. The method, then:
ANIMALS: 8 (eight) female drug-naïve cynomologus monkeys weighing between 3 and 5 kg were used. They were rendered parkinsonian by subcutaneous infusion of MPTP (0.5 mg daily) until development of an obvious parkinsonian Syndrome (akinesia, hunched posture and tremor associated with a disability score on our scale of 6 or more). The cumulative dose necessary was variable: from 3.5 to 23.5 mg. The animals were allowed to recover during at least one month except an animal who had to be treated earlier because of marked akinesia. They were scored at least once daily. The disability score remained stable throughout that period. […] The drug was administered orally with a special capsule handler. The animals in the KW-6002 group also received this compound (90 mg/kg) by the oral route. The animals were observed daily (from Monday to Friday) in their cages through a one-way screen and video recordings were made of significant events (abnormal behavior—dyskinesias). They were scored on disability scale and eventually dyskinesia rating scale, before and during the effect. The treatment with L-DOPA was continued for one month.

Data set [4] concerns MPTP-treated common marmosets. Briefly: L-DOPA induced dyskinesia in MPTP-treated marmosets primed with L-DOPA (Example 5). Type of data set: in vivo. To be noted: L-DOPA 2.5 mg/kg oral. The protocol: METHODS: MPTP (Sigma-Aldrich, St. Louis, Mo., USA) was dissolved in physiological saline and administered at a dose of 2.0 mg/kg s.c. daily for 5 days. Then, MPTP 2 mg/kg were further administered approximately 3 weeks.
The dyskinesia of the animals was scored using the rating scale described in Table 4. […] The score was calculated as the L-DOPA pre value. On the next day the animals received vehicle for the vehicle control value. […] Animals were assessed for dyskinesia on days 1, 3, 5, 7, 14, 21 and 28 according to the rating scale.
Abnormal movement such as, orofacial movements, myoclonus and complex stereotypic behaviors (e.g., elaborate checking, obsessive grooming), are exclude from dyskinesia rating.
Remarks According to Dyskinesia. Dystonia (arm, leg and trunk): abnormal sustained posture (ex. leg elevation). Stereotypic reaching (arm) Athetosis (arm and leg): writhing twisting movements. Chorea (arm and leg): abnormal rapid (dance like) movements of limbs. Akathisia: motor restlessness. Dyskinesia score is become higher according to severity of dyskinesia. The maximal score is four points.

The mark [5] stands for this setting: L-DOPA treatment 2 weeks after 6-hydroxydopamine lesion.
[6] abbreviates: L-DOPA treatment 3 weeks after 6-hydroxydopamine lesion.

`N[C@@H](Cc1ccc(O)c(O)c1)C(=O)O` [L-DOPA]: the “nigral GABA level” value in data set [1] (6-hydroxydopamine lesion rats, change from pre-value, KW-6002 1 mg/kg p.o., FIG. 2A, 3A) is “facilitation; also recorded: significant increases”. The nigral glutamate level entry in data set [1] (6-hydroxydopamine lesion rats, change from pre-value, KW-6002 1 mg/kg p.o., FIG. 2B, 3B) is recorded as “facilitation; also recorded: significant increases”. In addition, the “basal level of nigral GABA” value came to 19.3 ± 2.3 nmol/L in data set [1] (L-DOPA treatment 1 week (20 mg/kg orally twice a day) after 6-hydroxydopamine lesion), 20.9 ± 6.8 nmol/L in data set [1] (setting [5]) and 23.6 ± 4.5 nmol/L in data set [1] (setting [6]). For the same compound, the figures for the “basal level of nigral glutamate” value in data set [1] (L-DOPA treatment 1 week after 6-hydroxydopamine lesion), in data set [1] (setting [5]) and in data set [1] (setting [6]) were 147.5 ± 38.1 nmol/L, 112.0 ± 47.1 nmol/L and 425.4 ± 99.6 nmol/L, respectively. The “nigral GABA levels after administration” value in data set [1] (chronically L-DOPA-treated 6-hydroxydopamine lesion rats, FIG. 5A) was “without effect”. Besides, the “nigral glutamate levels after administration” value in data set [1] (chronically L-DOPA-treated 6-hydroxydopamine lesion rats, FIG. 5B) is reported as “increased”. Further, in data set [1] (constant until 2 weeks), the “basal nigral glutamate concentration during chronic L-DOPA (in words)” value is on record as “drastically increase in 3 weeks”. Further, the “basal nigral GABA levels during chronic L-DOPA (in words)” value in data set [1] (throughout 1 to 3 weeks) is reported as “maintained unchanged”. Moreover, the “average maximum AIM scores” value in data set [2] (2 to 3 weeks chronic L-DOPA, from 10 min to 3 hrs after L-DOPA administration) turned out to be 9. Further, the “AIMs (sum of the amplitude score of limb and axial AIMs)” value in data set [2] (chronically L-DOPA-treated rats, FIG. 4) is on record as “marked AIMs”. Further, the level of dyskinesia result in data set [3] is given as “reached a higher level”. Further, in data set [4], the “dyskinesias induced by L-DOPA” value is recorded as “mild dyskinesias”.
